Laboratory results published in patent publication US9150603B2, “2′-cyano substituted nucleoside derivatives and methods of use thereof useful for the treatment of viral diseases” (priority 2011, dated 2015).

Key:
replicon cells = assay: Cytotoxicity in replicon cells (MTS assay); conditions: CC50, MTS assay, three days post dosing
replicon cells (1b-Con1) = assay: Replicon activity assay (1b-Con1 replicon cells, real-time RT-PCR); assay type: cell-based, HCV; conditions: three days post-dosing
HCV replicon cells (1b) = assay: Cell-based HCV replicon assay (replicon RNA level by Taqman real time PCR); conditions: HCV 1b replicon, cells harvested on day 3
Experimental: To measure cell-based anti-HCV activity of selected compounds of the present invention, replicon cells were seeded at 5000 cells/well in 96-well collagen I-coated Nunc plates in the presence of the test compound. […]. Cells were harvested on day 3 by the addition of 1× cell lysis buffer (Ambion cat #8721). The replicon RNA level was measured using real time PCR (Taqman assay). The amplicon was located in 5B. The PCR primers were: 5B.2F, […] (SEQ ID. NO. 1); 5B.2R, […] (SEQ ID. NO. 2); the probe sequence was FAM-labeled […] (SEQ ID. NO. 3). GAPDH RNA was used as endogenous control and was amplified in the same reaction as NSSB (multiplex PCR) using primers and VIC-labeled probe recommended by the manufacturer (PE Applied Biosystem). The real-time RT-PCR reactions were run on ABI PRISM 7900HT Sequence Detection System using the following program: 48° C. for 30 minutes, 95° C. for 10 minutes, 40 cycles of 95° C. for 15 sec, 60° C. for 1 minute. The ACT values (CT5B−CTGAPDH) were plotted against the concentration of test compound and fitted to the sigmoid dose-response model using XLfit4 (MDL). […]; Alternatively, to quantitate the absolute amount of replicon RNA, a standard curve was established by including serially diluted T7 transcripts of replicon RNA in the Taqman assay. All Taqman reagents were from […] Applied Biosystems. Such an assay procedure was described in detail in e.g. Malcolm et al., Antimicrobial Agents and Chemotherapy 50: 1013-1020 (2006).

Compound	EC50 (HCV replicon cells (1b); Hepatitis C virus, 72 h) [µM]	also measured
CCC(NP(=O)(OC[C@H]1O[C@@H](n2cnc3c(OC)nc(N)nc32)[C@](C)(C#N)[C@@H]1O)Oc1ccccc1)C(=O)OC(C)C (stereo partly shown)		Cytotoxicity (replicon cells): >100 µM; EC50 (replicon cells (1b-Con1); Hepatitis C virus, 72 h): 2.2 µM
COC(=O)[C@H](C)NP(=O)(OC[C@H]1O[C@@H](n2ccc(N)nc2=O)[C@](C)(C#N)[C@@H]1O)Oc1ccccc1 (stereo partly shown) [Compound 21]	25	
CC(C)OC(=O)[C@H](C)NP(=O)(OC[C@H]1O[C@@H](n2ccc(=O)[nH]c2=O)[C@](C)(C#N)[C@@H]1O)Oc1ccccc1Cl (stereo partly shown) [Compound 30]	571	
CCOc1nc(N)nc2c1ncn2[C@@H]1O[C@H](CO)[C@@H](O)[C@@]1(C)C#N [Compound 5]	> 100	
C[C@@]1(C#N)[C@H](O)[C@@H](CO)O[C@H]1n1ccc(=O)[nH]c1=O [Compound 3]		EC50 (HCV replicon cells (1b)): > 66 µM
C[C@@]1(C#N)[C@H](O)[C@@H](CO)O[C@H]1n1ccc(=O)[nH]c1=O [Compound 2, 1-[(2R,3R,4S,5R)-3-cyano-4-hydroxy-5-(hydroxymethyl)-3-methyloxolan-2-yl]-1,2,3,4-tetrahydropyrimidine-2,4-dione]		EC50 (HCV replicon cells (1b)): 12.6 µM
C[C@@]1(C#N)[C@@H]2OP(=O)(Oc3ccccc3)OC[C@H]2O[C@H]1n1ccc(N)nc1=O (stereo partly shown) [Compound 26]	62	
CCCCOC(=O)[C@H](C)NP(=O)(OC[C@H]1O[C@@H](n2ccc(N)nc2=O)[C@](C)(C#N)[C@@H]1O)Oc1cccc2ccccc12 (stereo partly shown) [Compound 20]	16	
CCOC(=O)[C@H](C)NP(=O)(OC[C@H]1O[C@@H](n2ccc(=O)[nH]c2=O)[C@](C)(C#N)[C@@H]1O)Oc1ccc(Cl)cc1 (stereo partly shown) [Compound 19]	15	
COc1nc(N)nc2c1ncn2[C@@H]1O[C@H](COP(=O)(N[C@@H](C)C(=O)OC(C)C)Oc2ccccc2)[C@@H](O)[C@@]1(C)C#N (stereo partly shown)		Cytotoxicity (replicon cells): >100 µM; EC50 (replicon cells (1b-Con1); Hepatitis C virus, 72 h): 2.2 µM
C[C@H](NP(=O)(OC[C@H]1O[C@@H](n2ccc(N)nc2=O)[C@](C)(C#N)[C@@H]1O)Oc1ccccc1)C(=O)OCC(C)(C)C (stereo partly shown) [Compound 22]	18	
CCOc1nc(N)nc2c1ncn2[C@@H]1O[C@@H]2COP(=O)(OC(C)C)O[C@H]2[C@@]1(C)C#N (stereo partly shown) [Compound 28]	2.7	
CCOc1nc(N)nc2c1ncn2[C@@H]1O[C@@H]2COP(=O)(OC3CCC3)O[C@H]2[C@@]1(C)C#N (stereo partly shown)		Cytotoxicity (replicon cells): >100 µM; EC50 (replicon cells (1b-Con1); Hepatitis C virus, 72 h): 1.2 µM
CCOC(=O)[C@H](C)NP(=O)(OC[C@H]1O[C@@H](n2ccc(=O)[nH]c2=O)[C@](C)(C#N)[C@@H]1O)Oc1ccccc1 (stereo partly shown) [Compound 16]	51	
CC(C)OC(=O)[C@H](C)NP(=O)(OC[C@H]1O[C@@H](n2ccc(=O)[nH]c2=O)[C@](C)(C#N)[C@@H]1O)Oc1ccccc1 (stereo partly shown)		Cytotoxicity (replicon cells): >100 µM; EC50 (replicon cells (1b-Con1); Hepatitis C virus, 72 h): 8.3 µM
COC(=O)[C@H](C)NP(=O)(OC[C@H]1O[C@@H](n2ccc(=O)[nH]c2=O)[C@](C)(C#N)[C@@H]1O)Oc1ccc(Cl)cc1 (stereo partly shown) [Compound 17]	13	
CCOc1nc(N)nc2c1ncn2[C@@H]1O[C@H](COP(=O)(N[C@@H](C)C(=O)OC)Oc2ccccc2)[C@@H](O)[C@@]1(C)C#N (stereo partly shown) [Compound 6]	1.4	
CCOc1nc(N)nc2c1ncn2[C@@H]1O[C@H](COP(=O)(N[C@@H](C)C(=O)OC(C)C)Oc2ccccc2)[C@@H](O)[C@@]1(C)C#N (stereo partly shown) [Compound 10]	15	
CC(=O)Nc1ccn([C@@H]2O[C@H](CO)[C@@H](O)[C@@]2(C)C#N)c(=O)n1 [Compound 1]	14	
CC(C)COC(=O)[C@H](C)NP(=O)(OC[C@H]1O[C@@H](n2ccc(=O)[nH]c2=O)[C@](C)(C#N)[C@@H]1O)Oc1ccccc1 (stereo partly shown) [drawing 352]		Cytotoxicity (replicon cells): >100 µM; EC50 (replicon cells (1b-Con1)): 1.4 µM
C[C@@]1(C#N)[C@@H]2OP(=O)(OC3CCC3)OC[C@H]2O[C@H]1n1ccc(N)nc1=O (stereo partly shown) [Compound 27]	> 100	
C[C@H](NP(=O)(OC[C@H]1O[C@@H](n2ccc(=O)[nH]c2=O)[C@](C)(C#N)[C@@H]1O)Oc1ccccc1)C(=O)O[C@H](C)c1ccccc1 (stereo partly shown)		Cytotoxicity (replicon cells): >100 µM; EC50 (replicon cells (1b-Con1); Hepatitis C virus, 72 h): 34 µM
